31 compounds from ChEMBL document CHEMBL1201862, “PubChem BioAssay data set” (2004) can be followed below.

The target of data set [1] is T1, Short transient receptor potential channel 4 (Mus musculus, UniProt Q9QUQ5).
T1 sequence (Q9QUQ5 whole entry): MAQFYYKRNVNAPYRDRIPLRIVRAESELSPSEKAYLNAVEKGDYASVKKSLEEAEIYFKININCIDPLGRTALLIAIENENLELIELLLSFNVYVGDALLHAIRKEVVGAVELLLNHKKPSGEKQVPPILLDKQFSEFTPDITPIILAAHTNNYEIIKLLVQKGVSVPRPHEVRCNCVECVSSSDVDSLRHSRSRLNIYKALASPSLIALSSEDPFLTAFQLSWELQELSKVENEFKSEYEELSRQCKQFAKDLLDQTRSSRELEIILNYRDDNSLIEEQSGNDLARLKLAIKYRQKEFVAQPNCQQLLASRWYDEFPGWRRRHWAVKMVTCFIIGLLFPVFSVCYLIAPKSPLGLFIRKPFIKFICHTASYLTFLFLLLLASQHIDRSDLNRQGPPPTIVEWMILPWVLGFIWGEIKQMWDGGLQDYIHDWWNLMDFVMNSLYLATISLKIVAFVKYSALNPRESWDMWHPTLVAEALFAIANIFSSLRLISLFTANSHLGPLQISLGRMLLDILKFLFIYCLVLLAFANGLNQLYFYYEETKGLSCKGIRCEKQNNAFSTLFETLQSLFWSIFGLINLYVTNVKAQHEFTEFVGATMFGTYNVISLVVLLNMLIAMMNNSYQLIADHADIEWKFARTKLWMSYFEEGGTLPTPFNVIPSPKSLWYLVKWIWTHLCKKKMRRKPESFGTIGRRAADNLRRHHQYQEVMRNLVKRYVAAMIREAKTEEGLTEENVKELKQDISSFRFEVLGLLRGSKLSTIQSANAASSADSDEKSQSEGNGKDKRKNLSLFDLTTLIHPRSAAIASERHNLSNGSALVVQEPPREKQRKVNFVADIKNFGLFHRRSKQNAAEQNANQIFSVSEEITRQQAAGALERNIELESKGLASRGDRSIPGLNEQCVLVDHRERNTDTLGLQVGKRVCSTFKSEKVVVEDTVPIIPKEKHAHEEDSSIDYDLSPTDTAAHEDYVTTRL
Kind of data set: calcium entry via TRPC4 opening agents – cell-based, HEK293 TRPC4/mu-opioid, Fluo-4 calcium, dose response (AID 434937). It counts as functional.

A further data set has as its target Cytochrome P450 2D6 (Homo sapiens, UniProt P10635).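 Also: CYP2D6 member of a cytochrome P450 panel assay.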
The next data set concerns the target Cytochrome P450 2C19 (Homo sapiens, UniProt P33261). In words: Cytochrome panel assay with activity outcomes. Panel member name: p450-cyp2c19 Compounds with AC50 equal or less than 10 uM are considered active. The data set is classed as functional.
The next data set has as its target T2, Cytochrome P450 1A2 (Homo sapiens, UniProt P05177).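 Also: PubChem cytochrome P450 panel assay, CYP1A2 panel member.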
T2 sequence (P05177 whole entry): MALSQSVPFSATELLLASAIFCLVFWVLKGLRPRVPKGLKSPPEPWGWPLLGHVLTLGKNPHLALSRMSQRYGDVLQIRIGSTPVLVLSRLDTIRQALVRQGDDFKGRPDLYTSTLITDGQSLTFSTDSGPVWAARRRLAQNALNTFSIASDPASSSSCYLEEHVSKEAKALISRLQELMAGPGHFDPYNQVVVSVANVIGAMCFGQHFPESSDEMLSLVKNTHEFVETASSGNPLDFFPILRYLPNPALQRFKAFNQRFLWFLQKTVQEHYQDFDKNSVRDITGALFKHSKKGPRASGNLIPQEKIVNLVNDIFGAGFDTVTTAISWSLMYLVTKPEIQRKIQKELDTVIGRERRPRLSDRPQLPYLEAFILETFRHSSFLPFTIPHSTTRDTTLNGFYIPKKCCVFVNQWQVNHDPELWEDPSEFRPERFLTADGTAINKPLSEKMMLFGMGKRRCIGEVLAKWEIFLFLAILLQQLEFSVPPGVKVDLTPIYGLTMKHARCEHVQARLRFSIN

The target of data set [2] is Eukaryotic translation initiation factor 4E (Mus musculus, UniProt P63073). Kind of data set: blockers of eIF4G binding by eIF4E – biochemical, TR-FRET, dose response (AID 855).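 Also: potency for disrupting eIF4E binding to eIF4GI seen as loss of FRET.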 It counts as functional.
The target in the next data set is Kallikrein-7 (Homo sapiens, UniProt P49862). In words: Fluorescence Intensity-based biochemical primary high throughput dose response assay to identify activators of kallikrein-7 (K7) zymogen.
For data set [3], the target named is T3, Cytochrome P450 3A4 (Homo sapiens, UniProt P08684). The conditions noted are these: Potency.
Data set [4] concerns the target T4, Histone-lysine N-methyltransferase NSD2 (Homo sapiens, UniProt O96028).
T4 sequence (O96028 whole entry): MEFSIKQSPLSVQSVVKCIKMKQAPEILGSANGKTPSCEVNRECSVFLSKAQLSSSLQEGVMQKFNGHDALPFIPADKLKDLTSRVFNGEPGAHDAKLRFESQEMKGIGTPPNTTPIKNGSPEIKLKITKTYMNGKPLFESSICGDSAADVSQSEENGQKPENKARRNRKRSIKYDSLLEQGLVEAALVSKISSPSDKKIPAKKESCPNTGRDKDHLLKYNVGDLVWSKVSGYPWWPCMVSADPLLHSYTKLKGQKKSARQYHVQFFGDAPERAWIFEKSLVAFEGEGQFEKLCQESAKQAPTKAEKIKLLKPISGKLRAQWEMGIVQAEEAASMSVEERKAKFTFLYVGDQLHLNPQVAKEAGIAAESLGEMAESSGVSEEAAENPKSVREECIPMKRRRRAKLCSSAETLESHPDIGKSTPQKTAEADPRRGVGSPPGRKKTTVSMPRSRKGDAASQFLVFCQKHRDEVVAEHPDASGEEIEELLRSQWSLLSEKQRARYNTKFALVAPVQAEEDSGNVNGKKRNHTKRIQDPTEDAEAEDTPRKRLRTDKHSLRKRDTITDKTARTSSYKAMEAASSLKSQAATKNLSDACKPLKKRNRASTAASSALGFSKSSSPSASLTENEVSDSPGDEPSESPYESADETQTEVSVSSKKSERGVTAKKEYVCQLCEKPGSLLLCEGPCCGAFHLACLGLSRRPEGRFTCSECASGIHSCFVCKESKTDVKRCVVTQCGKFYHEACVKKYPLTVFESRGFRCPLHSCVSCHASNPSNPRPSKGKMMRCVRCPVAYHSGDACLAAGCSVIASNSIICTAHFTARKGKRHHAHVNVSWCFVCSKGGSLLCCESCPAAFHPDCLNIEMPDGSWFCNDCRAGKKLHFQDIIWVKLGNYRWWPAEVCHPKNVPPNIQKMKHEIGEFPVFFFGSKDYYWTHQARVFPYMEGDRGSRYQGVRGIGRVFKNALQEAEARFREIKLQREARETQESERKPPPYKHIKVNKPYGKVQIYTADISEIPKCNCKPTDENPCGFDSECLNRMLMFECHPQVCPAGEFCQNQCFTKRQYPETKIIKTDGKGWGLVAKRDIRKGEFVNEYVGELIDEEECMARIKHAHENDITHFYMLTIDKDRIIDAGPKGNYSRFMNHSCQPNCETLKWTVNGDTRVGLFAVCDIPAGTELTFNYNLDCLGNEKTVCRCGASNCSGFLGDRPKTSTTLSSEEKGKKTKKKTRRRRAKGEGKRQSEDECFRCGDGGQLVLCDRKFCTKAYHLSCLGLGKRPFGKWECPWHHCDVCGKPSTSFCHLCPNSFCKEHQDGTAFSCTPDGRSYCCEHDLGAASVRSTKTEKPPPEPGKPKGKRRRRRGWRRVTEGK
It counts as biochemical.

Data set [5] addresses T3, Cytochrome P450 3A4.
In data set [6] the target is T5, Cytochrome P450 2C9 (Homo sapiens, UniProt P11712).
In data set [7] the target is T1, Short transient receptor potential channel 4. Kind of data set: block of DAMGO-driven TRPC4 calcium entry – cell-based, HEK293 TRPC4/mu-opioid, Fluo-4 calcium, dose response (AID 434942).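 Also: potency of inhibitors blocking the TRPC4 calcium response.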 It counts as functional.
The target of data set [8] is T3, Cytochrome P450 3A4. This is another data set of the same source.
Data set [9] can be described thus: A cytotoxicity screen of small molecule inhibitors of the PhoP region in Salmonella typhi identified in the primary screen. [Related pubchem assays: 1850, 1864, 1985 ]. The data set is classed as functional.
Data set [10] concerns the target T6, Carboxy-terminal domain RNA polymerase II polypeptide A small phosphatase 1 (Homo sapiens, UniProt Q9GZU7).
T6 sequence (Q9GZU7 whole entry): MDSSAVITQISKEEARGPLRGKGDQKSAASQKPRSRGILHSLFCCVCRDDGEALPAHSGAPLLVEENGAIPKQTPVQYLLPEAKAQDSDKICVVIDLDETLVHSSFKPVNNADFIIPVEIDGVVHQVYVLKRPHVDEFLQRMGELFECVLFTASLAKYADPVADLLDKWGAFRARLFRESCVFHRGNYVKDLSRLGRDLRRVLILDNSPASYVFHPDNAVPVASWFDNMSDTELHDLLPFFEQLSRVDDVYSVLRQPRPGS
In words: CTDSP1 inhibitors, concentration-response, biochemical, absorbance readout, ultra-high-throughput screen actives (AID 540297). It counts as functional.

For data set [11], the target named is T5, Cytochrome P450 2C9. This is another data set of the same source.

The source made the active and inactive calls.

T3 sequence (P08684 whole entry): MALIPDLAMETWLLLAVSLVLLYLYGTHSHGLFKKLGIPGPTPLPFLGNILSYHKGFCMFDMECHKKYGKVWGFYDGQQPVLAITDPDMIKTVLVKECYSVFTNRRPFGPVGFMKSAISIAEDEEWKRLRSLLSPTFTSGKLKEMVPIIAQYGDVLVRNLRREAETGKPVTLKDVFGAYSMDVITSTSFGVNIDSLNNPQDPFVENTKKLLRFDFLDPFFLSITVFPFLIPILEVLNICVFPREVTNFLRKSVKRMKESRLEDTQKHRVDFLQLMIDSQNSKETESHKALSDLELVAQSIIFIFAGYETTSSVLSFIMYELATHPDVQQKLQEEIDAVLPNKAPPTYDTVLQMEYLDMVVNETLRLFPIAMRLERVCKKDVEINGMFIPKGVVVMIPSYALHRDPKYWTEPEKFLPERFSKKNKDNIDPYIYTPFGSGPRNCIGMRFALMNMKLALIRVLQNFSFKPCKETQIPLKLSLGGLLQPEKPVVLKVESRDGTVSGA
T5 sequence (P11712 whole entry): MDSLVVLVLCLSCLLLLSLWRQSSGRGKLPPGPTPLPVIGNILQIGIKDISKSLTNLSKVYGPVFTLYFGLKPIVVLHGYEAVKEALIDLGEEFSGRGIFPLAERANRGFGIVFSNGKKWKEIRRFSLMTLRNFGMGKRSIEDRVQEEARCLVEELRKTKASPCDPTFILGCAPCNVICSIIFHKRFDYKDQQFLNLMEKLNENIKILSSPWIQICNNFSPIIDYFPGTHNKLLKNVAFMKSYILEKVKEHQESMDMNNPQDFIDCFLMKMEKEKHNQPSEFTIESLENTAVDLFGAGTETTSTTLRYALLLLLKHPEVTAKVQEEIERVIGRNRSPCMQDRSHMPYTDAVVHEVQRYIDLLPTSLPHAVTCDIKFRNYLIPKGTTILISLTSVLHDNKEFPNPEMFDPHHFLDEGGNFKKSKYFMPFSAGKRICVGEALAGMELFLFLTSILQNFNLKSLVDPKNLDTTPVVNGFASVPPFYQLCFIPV
Kallikrein-7, sequence (P49862 whole entry): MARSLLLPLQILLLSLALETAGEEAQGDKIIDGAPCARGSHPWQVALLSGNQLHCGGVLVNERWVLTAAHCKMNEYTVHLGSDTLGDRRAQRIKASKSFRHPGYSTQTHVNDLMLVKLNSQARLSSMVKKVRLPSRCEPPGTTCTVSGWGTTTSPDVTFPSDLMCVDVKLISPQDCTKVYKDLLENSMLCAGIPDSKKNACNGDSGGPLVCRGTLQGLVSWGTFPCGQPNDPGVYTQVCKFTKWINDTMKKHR
Eukaryotic translation initiation factor 4E, sequence (P63073 whole entry): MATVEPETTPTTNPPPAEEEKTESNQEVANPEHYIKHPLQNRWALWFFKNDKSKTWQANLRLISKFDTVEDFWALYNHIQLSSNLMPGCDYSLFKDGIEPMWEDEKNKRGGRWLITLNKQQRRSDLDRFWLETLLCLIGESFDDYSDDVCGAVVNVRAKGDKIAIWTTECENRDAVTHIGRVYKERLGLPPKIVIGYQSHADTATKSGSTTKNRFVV
Cytochrome P450 2C19, sequence (P33261 whole entry): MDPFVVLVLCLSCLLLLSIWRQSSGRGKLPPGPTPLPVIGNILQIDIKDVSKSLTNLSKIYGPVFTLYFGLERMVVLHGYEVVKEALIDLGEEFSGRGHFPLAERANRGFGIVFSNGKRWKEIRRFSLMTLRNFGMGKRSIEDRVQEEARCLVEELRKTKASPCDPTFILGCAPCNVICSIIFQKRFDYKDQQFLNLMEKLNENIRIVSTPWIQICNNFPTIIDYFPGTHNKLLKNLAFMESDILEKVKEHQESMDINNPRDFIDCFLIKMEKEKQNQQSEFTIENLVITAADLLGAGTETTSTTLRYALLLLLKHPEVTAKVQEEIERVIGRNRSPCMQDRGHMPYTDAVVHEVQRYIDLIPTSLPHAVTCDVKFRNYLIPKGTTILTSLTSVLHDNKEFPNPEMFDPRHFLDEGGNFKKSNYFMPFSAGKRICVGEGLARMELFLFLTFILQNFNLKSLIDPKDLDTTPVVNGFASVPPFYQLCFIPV
Cytochrome P450 2D6, sequence (P10635 whole entry): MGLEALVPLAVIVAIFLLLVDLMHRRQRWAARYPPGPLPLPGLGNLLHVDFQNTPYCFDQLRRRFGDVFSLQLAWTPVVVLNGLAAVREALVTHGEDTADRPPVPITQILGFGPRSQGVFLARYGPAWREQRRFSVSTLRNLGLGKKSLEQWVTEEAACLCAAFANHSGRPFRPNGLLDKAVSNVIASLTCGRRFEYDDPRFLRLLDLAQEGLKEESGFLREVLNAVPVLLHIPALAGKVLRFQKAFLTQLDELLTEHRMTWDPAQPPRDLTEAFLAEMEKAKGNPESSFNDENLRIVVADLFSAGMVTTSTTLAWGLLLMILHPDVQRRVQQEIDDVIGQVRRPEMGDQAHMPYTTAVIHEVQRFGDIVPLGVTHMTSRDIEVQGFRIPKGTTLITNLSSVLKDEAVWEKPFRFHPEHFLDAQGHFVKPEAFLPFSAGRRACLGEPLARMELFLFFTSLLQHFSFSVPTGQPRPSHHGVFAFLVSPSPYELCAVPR

On to `O=C(CCCc1ccccc1)NCCc1cnc[nH]1`, for which the half-maximal effective concentration (EC50) in [1] was 5.31 µM (active).

For the compound `Cc1cc(C)nc(Nc2n[nH]c(COc3ccc4ccccc4c3)n2)n1`, the concentration at half-maximal activity (AC50) entry at Cytochrome P450 2D6 is “inconclusive”; on Cytochrome P450 2C19 (read-out: AC50), 17.8 µM (inconclusive); on Cytochrome P450 1A2, 1.12 µM (inconclusive).

Take `CCc1nnc(NC(=O)Cn2nc(-c3ccccc3OC)ccc2=O)s1`: the IC50 in data set [2] is > 64 µM (inactive). As to `O=C(CSc1ncn(-c2ccccc2)n1)N1CCc2ccccc21`, the IC50 in data set [2] was > 64 µM (inactive).

With `COC(=O)CNC(=O)COC(=O)c1cc(Cl)cc(Cl)c1N`, at Kallikrein-7, the EC50 is > 69.5 µM (inactive). For the compound `COc1ccc(/C=C/C(O)=C2/C(=O)NC3(C)CC2c2ccccc2O3)c(OC)c1OC` (configuration not stated), on Kallikrein-7, the EC50 was > 69.6 µM (inactive).

Take `CC(=O)Oc1c2c(c3c(c1CC=C(C)C)O[C@@]14C(=CC5CC1C(C)(C)OC4(C/C=C(\C)C(=O)O)C5=O)C3=O)OC(C)(CCC=C(C)C)C=C2` (some centres not stated): on Cytochrome P450 3A4 [3], the AC50 is 39.8 µM (inconclusive). Turning to `COc1cc(C(=O)NNC(=O)C2CC=CCC2C(=O)O)cc(OC)c1OC` (configuration not stated), the IC50 in data set [2] is > 64 µM (inactive). As for `Cc1cc2ccccn2c1C(=S)NC(=O)c1ccccc1`, the AC50 in data set [4] is > 20 µM (inactive). Regarding `O=C(Nc1ccc2c(c1)OCCO2)C1CCN(C(=O)c2ccccc2)CC1`, the AC50 result on Cytochrome P450 2D6 is reported as “inconclusive”. `CCN(CC)CCn1c(-c2ccccc2)nc2c(NCCOC)nc(C)nc21`: the AC50 on Cytochrome P450 3A4 [3] was 12.6 µM (inconclusive). As to `CS(=O)(=O)N1CCC2(CCN(C(c3ccccc3)c3ccccc3)CC2)CC1`, the AC50 result at Cytochrome P450 3A4 [5] is given as “inconclusive”. `COc1ccccc1CN1CC2(CCN(S(=O)(=O)c3ccccc3)CC2)C1`: the AC50 result on Cytochrome P450 2D6, on Cytochrome P450 2C19 and on Cytochrome P450 2C9 [6] was “inconclusive” each time. For the compound `COCCNc1ncncc1-c1c(C)noc1C`, the half-maximal activity concentration (AC50) result on Cytochrome P450 2C9 [6] was “inconclusive”.

Turning to `COc1ccc(Cl)cc1NC(=O)CNCC(c1ccccc1)N(C)C` (configuration not stated), the results for the 50% effective concentration (EC50) in data set [7] and in data set [1] were 0.421 µM (active) and 1.06 µM (active), respectively. In the case of `CSc1ccc(Cl)c(C(=O)NCCOc2cc(C)ccc2C(C)C)c1`, the values for the AC50 on Cytochrome P450 3A4 [8] and at Cytochrome P450 2C9 [6] were 1 µM (inconclusive) and “inconclusive”, respectively. As to `CCCCOc1ccc(OCCNC(=O)c2ccco2)cc1`, the 50% effective concentration (EC50) in data set [9] is > 50 µM (active). For the compound `O=C(Cn1cnc2ccccc21)Nc1ccc(SC(F)F)cc1`, the EC50 in data set [9] is > 50 µM (active). As to `O=C(NC1CCC(O)CC1)c1cc(-c2ccco2)nc2ccccc12` (configuration not stated), the EC50 at Kallikrein-7 was > 69.5 µM (inactive). Also, the IC50 in data set [10] is 5.9 µM (active); in [2] it was 50 µM (inactive). Take `O=C(C[n+]1ccccc1)c1ccc(-c2ccccc2)cc1`: the EC50 in data set [9] is > 50 µM (active). As to `CC(=O)OC1CC2C(C)(C)C(O)C=C[C@@]2(C)C2CC[C@]3(C)C(=CC(=O)OC3c3ccoc3)[C@]12C` (some centres not stated), on Cytochrome P450 3A4 [3], the AC50 is 15.8 µM (inconclusive).

On to `CCNc1cc(O)ccc1C`, for which the half-maximal activity concentration (AC50) on Cytochrome P450 3A4 [3] is 25.1 µM (inconclusive).

As for `Cc1cc2ccccc2c(=O)n1CC(=O)NCCC1=CCCCC1`, the EC50 in [9] is > 50 µM (active). In the case of `COCC(=O)Oc1c(Sc2ccccc2[N+](=O)[O-])c(C)nn1C(C)(C)C`, the IC50 in data set [2] is 50 µM (inactive).

In the case of `COc1ccc(-c2nc(NC(=O)c3ccccc3)sc2-c2ccc([N+](=O)[O-])cc2)cc1`, the AC50 result at Cytochrome P450 2D6 is “inconclusive”; on Cytochrome P450 2C19 (read-out: AC50), 1.26 µM (inconclusive); at Cytochrome P450 2C9 [11], 2.82 µM (inconclusive).

Take `CC(COc1ccccc1)N1CCC(CO)(CCc2ccccc2)CC1` (configuration not stated): in data set [1], the EC50 is 0.267 µM (active). `Cc1noc(C)c1-c1cc(N2CCN(C)CC2)ncn1`: the AC50 entry on Cytochrome P450 2C9 [6] is reported as “inconclusive”.

In the case of `O=C(O)CSSCC(=O)O`, the AC50 entry on Cytochrome P450 2D6 and on Cytochrome P450 2C19 was “inconclusive” each time. Take `Nc1nc2ncccn2c1-c1ccc(F)c(F)c1`: the concentration giving a half-maximal response (EC50) at Kallikrein-7 was 9.39 µM (active). `C[C@@H](NCc1cc(Br)cc2[nH]c(=O)c(=O)[nH]c12)P(=O)(O)O`: the AC50 entry on Cytochrome P450 2C9 [6] is “inconclusive”. Take `C=CCN=C=S` [ALLYL ISOTHIOCYANATE]: the half-maximal activity concentration (AC50) on Cytochrome P450 3A4 [3] was 39.8 µM (inconclusive).
